Experimental data from ChEMBL document CHEMBL4665675 (J Med Chem, 2020).

Columns and labels:
P388 = experiment: Antiproliferative activity against mouse P388 cells incubated for 72 hrs by Coulter counter method; format: functional, cell-based; details: P388, 72 h
LoVo = experiment: Antiproliferative activity against human LoVo cells incubated for 72 hrs by sulforhodamine B assay; format: functional, cell-based
BALB/3T3 = experiment: Cytotoxicity against mouse BALB/3T3 cells incubated for 72 hrs by sulforhodamine B assay; format: cell-based; details: BALB/3T3, 72 h
MCF7 [1] = experiment: Antiproliferative activity against human MCF7 cells incubated for 72 hrs by sulforhodamine B assay; format: functional, cell-based; details: MCF7, 72 h
A549 [2] = experiment: Antiproliferative activity against human A549 cells incubated for 72 hrs by sulforhodamine B assay; format: functional, cell-based; details: A549, 72 h
[3] = Antiproliferative activity against human LoVo/DX cells incubated for 72 hrs by sulforhodamine B assay; format: functional, cell-based
CCRF-CEM = experiment: Cytotoxicity against human CEM cells incubated for 48 to 72 hrs by Cell Titer 96 aqueous one solution cell proliferation assay; format: functional, cell-based
A2780 = experiment: Cytotoxicity against human A2780 cells; format: functional, cell-based
MCF7 [4] = experiment: Cytotoxicity against human MCF7 cells; format: functional, cell-based
Bel-7402 = experiment: Cytotoxicity against human BEL7402 cells; format: functional, cell-based
A549 [5] = experiment: Cytotoxicity against human A549 cells; format: functional, cell-based
[6] = Antiproliferative activity against human ALL5 cells incubated for 120 hrs by MTT assay; format: functional, cell-based; details: ALL5, 120 h
HeLa = experiment: Cytotoxicity against human HeLa cells after 24 to 72 hrs by Cell Titer Blue assay; format: cell-based

| IC50 (LoVo) [nM] | IC50 (MCF7 [1]) [nM] | IC50 (A549 [2]) [nM] | Compound | IC50 (BALB/3T3) [nM] | IC50 [3] [nM] | further results |
| --- | --- | --- | --- | --- | --- | --- |
|  |  |  | CNc1ccc2c(cc1=O)[C@@H](NC(C)=O)CCc1cc(OC)c(OC)c(OC)c1-2 |  |  | IC50 (P388): 29 nM |
|  |  |  | COc1cc2c(c(OC)c1OC)-c1ccc(NCCCN(C)C)c(=O)cc1[C@@H](NC(C)=O)CC2 |  |  | IC50 (P388): > 10000 nM |
|  |  |  | COCCOc1c(OC)c(OC)cc2c1-c1ccc(OC)c(=O)cc1[C@@H](NC(C)=O)CC2 |  |  | IC50 (CCRF-CEM): 12 nM |
|  |  |  | COc1cc2c(c(OCc3ccccc3Cl)c1OC)-c1ccc(OC)c(=O)cc1[C@@H](NC(C)=O)CC2 |  |  | IC50 (CCRF-CEM): 12 nM |
| 11 | 11 | 11 | COC(=O)N[C@H]1CCc2c(Cl)c(OC)c(OC)c(OC)c2-c2ccc(SC)c(=O)cc21 | 11 | 11 |  |
| 8 | 8 | 8 | CCOC(=O)N[C@H]1CCc2c(Cl)c(OC)c(OC)c(OC)c2-c2ccc(SC)c(=O)cc21 | 8 | 8 |  |
|  |  |  | CCCCNc1ccc2c(cc1=O)[C@@H](NC(C)=O)CCc1cc(OC)c(OC)c(OC)c1-2 |  |  | IC50 (P388): 240 nM |
|  |  |  | COc1cc2c(c(OC)c1OC)-c1ccc(NCCOC(=O)CCC(=O)OCCCCCO[N+](=O)[O-])c(=O)cc1[C@@H](NC(C)=O)CC2 |  |  | IC50 (A2780): 20 nM; IC50 (MCF7 [4]): 40 nM; IC50 (Bel-7402): 40 nM; IC50 (A549 [5]): 40 nM |
| 7 | 7 | 7 | COc1c(Cl)c2c(c(OC)c1OC)-c1ccc(SC)c(=O)cc1[C@@H](NC(=O)c1ccccc1)CC2 | 7 | 7 | IC50 [6]: 7 nM |
| 40 | 40 | 40 | COc1c(Cl)c2c(c(OC)c1OC)-c1ccc(SC)c(=O)cc1[C@@H](NC(=O)OCCO)CC2 | 40 | 40 |  |
| 5 | 5 | 5 | COCC(=O)N[C@H]1CCc2c(Cl)c(OC)c(OC)c(OC)c2-c2ccc(SC)c(=O)cc21 | 5 | 5 | IC50 [6]: 5 nM |
| 93 | 93 | 93 | COc1c(Cl)c2c(c(OC)c1OC)-c1ccc(SC)c(=O)cc1[C@@H](NC(=O)OCCOCCO)CC2 | 93 | 93 |  |
|  |  |  | COc1cc2c(c(OCc3cccc(Cl)c3)c1OC)-c1ccc(OC)c(=O)cc1[C@@H](NC(C)=O)CC2 |  |  | IC50 (CCRF-CEM): 12 nM |
|  |  |  | COc1cc2c(c(OC)c1OC)-c1ccc(NCCOC(=O)CCC(=O)OCCCCO[N+](=O)[O-])c(=O)cc1[C@@H](NC(C)=O)CC2 |  |  | IC50 (A2780): 20 nM; IC50 (MCF7 [4]): 40 nM; IC50 (Bel-7402): 40 nM; IC50 (A549 [5]): 40 nM |
|  |  |  | COc1cc2c(c(OC)c1OC)-c1ccc(NCCOC(=O)CCC(=O)OCCO[N+](=O)[O-])c(=O)cc1[C@@H](NC(C)=O)CC2 |  |  | IC50 (A2780): 20 nM; IC50 (MCF7 [4]): 40 nM; IC50 (Bel-7402): 40 nM; IC50 (A549 [5]): 40 nM |
|  |  |  | CCCOc1c(OC)c(OC)cc2c1-c1ccc(OC)c(=O)cc1[C@@H](NC(C)=O)CC2 |  |  | IC50 (CCRF-CEM): 12 nM |
|  |  |  | COc1cc2c(c(OCc3ccc(Cl)cc3)c1OC)-c1ccc(OC)c(=O)cc1[C@@H](NC(C)=O)CC2 |  |  | IC50 (CCRF-CEM): 12 nM |
|  |  | 92 | COc1cccc2c1C(=O)c1c(O)c3c(c(O)c1C2=O)C[C@@](O)(C(=O)CO)C[C@@H]3O[C@H]1C[C@H](N)[C@H](O)[C@H](C)O1 [DOXORUBICIN] | 92 | 92 |  |
| 78 | 78 | 78 | CCCCCCCCCC(=O)N[C@H]1CCc2c(Cl)c(OC)c(OC)c(OC)c2-c2ccc(SC)c(=O)cc21 | 78 | 78 | IC50 [6]: 78 nM |
|  |  |  | COc1cc2c(c(OC)c1OC)-c1ccc(NCC(C)C)c(=O)cc1[C@@H](NC(C)=O)CC2 |  |  | IC50 (P388): 320 nM |
|  |  |  | COc1cc2c(c(OC)c1OC)-c1ccc(=N)c(O)cc1[C@@H](NC(C)=O)CC2 |  |  | IC50 (HeLa): 7 nM |
| 98 | 98 | 98 | COc1c(Cl)c2c(c(OC)c1OC)-c1ccc(SC)c(=O)cc1[C@@H](N)CC2 | 98 | 98 |  |

| Compound | IC50 (LoVo) [nM] | IC50 (MCF7 [1]) [nM] | IC50 (A549 [2]) [nM] | IC50 (BALB/3T3) [nM] | IC50 [3] [nM] | further results |
| --- | --- | --- | --- | --- | --- | --- |
| COc1c(Cl)c2c(c(OC)c1OC)-c1ccc(SC)c(=O)cc1[C@@H](NC(C)=O)CC2 | 22 | 22 | 22 | 22 | 111 |  |
| COc1c(I)c2c(c(OC)c1OC)-c1ccc(SC)c(=O)cc1[C@@H](NC(C)=O)CC2 | 7 | 17 | 11 | 115 | 642 |  |
